A value given as a limit tells only on which side of the number the result lay.

In the experiment the target is Leukotriene B4 receptor 1 (Homo sapiens, UniProt Q15722). The experiment is described as follows: Compound was tested for inhibition against binding of radioligand [3H]LTB4 to Leukotriene B4 receptor in human neutrophil membranes. The format is cell membranes.
Chain of Leukotriene B4 receptor 1 (Q15722 whole entry): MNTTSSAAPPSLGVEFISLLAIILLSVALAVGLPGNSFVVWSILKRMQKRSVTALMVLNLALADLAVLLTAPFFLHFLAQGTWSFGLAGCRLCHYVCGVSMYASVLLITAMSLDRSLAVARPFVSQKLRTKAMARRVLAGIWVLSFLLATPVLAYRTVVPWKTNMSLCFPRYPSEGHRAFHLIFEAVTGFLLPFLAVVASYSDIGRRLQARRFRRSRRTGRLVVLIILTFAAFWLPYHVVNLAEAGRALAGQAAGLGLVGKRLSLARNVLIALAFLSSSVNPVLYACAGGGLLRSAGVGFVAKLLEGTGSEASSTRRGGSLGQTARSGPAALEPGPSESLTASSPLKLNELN
In general, IC50 refers to the concentration that gives 50% inhibition. Read a low IC50 as greater potency. On to `[N-]=[N+]=Nc1ccc(CCCCC(O)/C=C/C2CCCC(O)(CC(=O)O)C2)cc1I` (stereo not drawn), for which the IC50 was > 10000 nM. Under `CN(C)C(=O)CC1(O)CCCC(/C=C/C(O)CCCCc2ccc(N=[N+]=[N-])cc2)C1` (stereo in doubt; 4b) stands 2000 nM. In the case of `CN(C)C(=O)CC1(O)CCCC(/C=C/C(O)CCCCc2ccc(N=[N+]=[N-])c(I)c2)C1` (stereo in doubt) it was 6000 nM.

In the case of `CN(C)C(=O)CC1(O)CCCC(/C=C/C(O)CCCCc2ccc(N=[N+]=[N-])c(I)c2)C1` (stereo in doubt; 6b), the IC50 was > 10000 nM.

Regarding `CN(C)C(=O)CC1(O)CCCC(/C=C/C(O)CCCCc2ccc(N=[N+]=[N-])cc2)C1` (stereo in doubt), the IC50 was 700 nM. That is a sub-micromolar value.

Take `O=C(O)CC1(O)CCCC(/C=C/C(O)CCCCc2ccccc2)C1` (stereo not drawn): the IC50 is 300 nM. Compared with the last compound, the IC50 is about 2.3-fold lower. As for `CN(C)C(=O)CC1(O)CCCC(/C=C/C(O)CCCCc2ccccc2)C1` (stereo not drawn), the IC50 amounted to 40 nM. For `[N-]=[N+]=Nc1ccc(CCCCC(O)/C=C/C2CCCC(O)(CC(=O)O)C2)cc1` (stereo not drawn), the IC50 came to 2000 nM.
